Test results reported in publication PMC12669040, “Tumour-specific STING agonist synthesis via a two-component prodrug system” (Nature Chemistry, 2025).
“And” between values parts separate entries of the source, which are not always exact repeats. Equal entries are not always repeated.

Tests used:
[1] = Colorimetric alkylation rate constant assay with thiol N1; format: physicochemical; details: for remaining [A]: N1 from calibration curve (N1 in uM); for remaining [A] / remaining [B]: in µM
[2] = Colorimetric alkylation rate constant assay with TNB^2− as non-specific thiol; format: physicochemical; parameters: second-order: unit not given here; details: for remaining [B]: in µM
[3] = Time 2891 sec, [B]0 = 250, Replicates 1-3
[4] = Time 3071 sec, [B]0 = 250, Replicates 1-3
[5] = Time 3252 sec, [B]0 = 250, Replicates 1-3
[6] = Time 3433 sec, [B]0 = 250, Replicates 1-3
[7] = Time 3613 sec, [B]0 = 250, Replicates 1-3

remaining [A] ([1]; Replicate 1, time 576 sec): 78.3846 | remaining [B] ([1]; Replicate 1, time 576 sec, [B]0 = 250): 224.265 | remaining [A] ([1]; Replicate 1, time 606 sec): 77.4156 | remaining [B] ([1]; Replicate 1, time 606 sec, [B]0 = 250): 223.296 | remaining [A] ([1]; Replicate 2, time 576 sec): 78.0283 | remaining [B] ([1]; Replicate 2, time 576 sec, [B]0=250): 224.887 | remaining [A] ([1]; Replicate 2, time 606 sec): 77.1496 | remaining [B] ([1]; Replicate 2, time 606 sec, [B]0=250): 224.008 | remaining [A] ([1]; Replicate 3, time 576 sec): 79.3863 | remaining [B] ([1]; Replicate 3, time 576 sec, [B]0=250): 224.839 | remaining [A] ([1]; Replicate 3, time 606 sec): 78.4394 | remaining [B] ([1]; Replicate 3, time 606 sec, [B]0=250): 223.892 | remaining [B] ([1]; time 0 sec, [B]0 = 250, replicates 1-3): 247.294 and 246.181 and 246.372 | remaining [B] ([1]; time 30 sec, [B]0 = 250, replicates 1-3): 245.834 and 244.471 and 245.125 | remaining [B] ([1]; time 60 sec, [B]0 = 250, replicates 1-3): 244.264 and 243.246 and 243.566 | remaining [B] ([1]; time 91 sec, [B]0 = 250, replicates 1-3): 243.074 and 241.878 and 242.29 | remaining [B] ([1]; time 121 sec, [B]0 = 250, replicates 1-3): 241.802 and 240.652 and 241.043 | remaining [B] ([1]; time 151 sec, [B]0 = 250, replicates 1-3): 240.639 and 239.37 and 239.711 | remaining [B] ([1]; time 182 sec, [B]0 = 250, replicates 1-3): 239.367 and 238.23 and 238.549 | remaining [B] ([1]; time 212 sec, [B]0 = 250, replicates 1-3): 238.15 and 237.033 and 237.472 | remaining [B] ([1]; time 242 sec, [B]0 = 250, replicates 1-3): 236.878 and 235.893 and 236.139 | remaining [B] ([1]; time 273 sec, [B]0 = 250, replicates 1-3): 235.688 and 234.696 and 235.147 | remaining [B] ([1]; time 303 sec, [B]0 = 250, replicates 1-3): 234.525 and 233.67 and 234.042 | remaining [B] ([1]; time 333 sec, [B]0 = 250, replicates 1-3): 233.361 and 232.444 and 232.88 | remaining [B] ([1]; time 364 sec, [B]0 = 250, replicates 1-3): 232.279 and 231.447 and 231.944 | remaining [B] ([1]; time 394 sec, [B]0 = 250, replicates 1-3): 231.17 and 230.25 and 230.782 | remaining [B] ([1]; time 424 sec, [B]0 = 250, replicates 1-3): 230.115 and 229.224 and 229.847 | remaining [B] ([1]; time 454 sec, [B]0 = 250, replicates 1-3): 228.924 and 228.283 and 228.77 | remaining [B] ([1]; time 485 sec, [B]0 = 250, replicates 1-3): 227.977 and 227.229 and 227.834 | remaining [B] ([1]; time 515 sec, [B]0 = 250, replicates 1-3): 226.922 and 226.203 and 226.814 | remaining [B] ([1]; time 545 sec, [B]0 = 250, replicates 1-3): 225.813 and 225.205 and 225.879 | remaining [B] ([2]; Replicate 1, 723 sec, [B]0 = 250): 243.209 | remaining [B] ([2]; Replicate 1, 903 sec, [B]0 = 250): 242.478 | remaining [B] ([2]; Replicate 1, 1084 sec, [B]0 = 250): 241.798 | remaining [B] ([2]; Replicate 1, 1265 sec, [B]0 = 250): 241.104 | remaining [B] ([2]; Replicate 1, 1445 sec, [B]0 = 250): 240.437 | remaining [B] ([2]; Replicate 1, 1626 sec, [B]0 = 250): 239.756 | remaining [B] ([2]; Replicate 1, 1806 sec, [B]0 = 250): 239.088 | remaining [B] ([2]; Replicate 1, 1988 sec, [B]0 = 250): 238.42 | remaining [B] ([2]; Replicate 1, 2168 sec, [B]0 = 250): 237.79 | remaining [B] ([2]; Replicate 1, 2349 sec, [B]0 = 250): 237.085 | remaining [B] ([2]; Replicate 1, 2530 sec, [B]0 = 250): 236.392 | remaining [B] ([2]; Replicate 1, 2710 sec, [B]0 = 250): 235.737 | remaining [B] ([2]; Replicate 2, 542 sec, [B]0=250): 242.118 | remaining [B] ([2]; Replicate 2, 723 sec, [B]0=250): 241.425 | remaining [B] ([2]; Replicate 2, 903 sec, [B]0=250): 240.732 | remaining [B] ([2]; Replicate 2, 1084 sec, [B]0=250): 240.077 | remaining [B] ([2]; Replicate 2, 1265 sec, [B]0=250): 239.371 | remaining [B] ([2]; Replicate 2, 1445 sec, [B]0=250): 238.754 | remaining [B] ([2]; Replicate 2, 1626 sec, [B]0=250): 238.023 | remaining [B] ([2]; Replicate 2, 1806 sec, [B]0=250): 237.355 | remaining [B] ([2]; Replicate 2, 1988 sec, [B]0=250): 236.687 | remaining [B] ([2]; Replicate 2, 2168 sec, [B]0=250): 236.019 | remaining [B] ([2]; Replicate 2, 2349 sec, [B]0=250): 235.377 | remaining [B] ([2]; Replicate 2, 2530 sec, [B]0=250): 234.722 | remaining [B] ([2]; Replicate 2, 2710 sec, [B]0=250): 234.041 | remaining [B] ([2]; Replicate 3, 723 sec, [B]0=250): 243.07 | remaining [B] ([2]; Replicate 3, 903 sec, [B]0=250): 242.352 | remaining [B] ([2]; Replicate 3, 1084 sec, [B]0=250): 241.558 | remaining [B] ([2]; Replicate 3, 1265 sec, [B]0=250): 240.878 | remaining [B] ([2]; Replicate 3, 1445 sec, [B]0=250): 240.248 | remaining [B] ([2]; Replicate 3, 1626 sec, [B]0=250): 239.542 | remaining [B] ([2]; Replicate 3, 1806 sec, [B]0=250): 238.786 | remaining [B] ([2]; Replicate 3, 1988 sec, [B]0=250): 238.244 | remaining [B] ([2]; Replicate 3, 2168 sec, [B]0=250): 237.513 | remaining [B] ([2]; Replicate 3, 2349 sec, [B]0=250): 236.921 | remaining [B] ([2]; Replicate 3, 2530 sec, [B]0=250): 236.215 | remaining [B] ([2]; Replicate 3, 2710 sec, [B]0=250): 235.51 | remaining [B] [2, 3]: 234.892 and 235.081 and 233.424 | remaining [B] [2, 4]: 234.187 and 234.35 and 232.743 | remaining [B] [2, 5]: 233.519 and 233.72 and 232.088 | remaining [B] [2, 6]: 232.889 and 233.04 and 231.445 | remaining [B] [2, 7]: 232.246
Compound: O=C(CCl)N1CCOCC1 [Compound C4]
second-order ([1]; Replicate 1, time 576 sec, second-order plot value): 0.001202 | second-order ([1]; Replicate 1, time 606 sec, second-order plot value): 0.001257 | second-order ([1]; Replicate 2, time 576 sec, second-order plot value): 0.001179 | second-order ([1]; Replicate 2, time 606 sec, second-order plot value): 0.00123 | second-order ([1]; Replicate 3, time 576 sec, second-order plot value): 0.001164 | second-order ([1]; Replicate 3, time 606 sec, second-order plot value): 0.001217 | second-order ([1]; time 0 sec, replicates 1-3): 0.0001443 and 0.0001055 and 0.0001506 | second-order ([1]; time 30 sec, replicates 1-3): 0.0001956 and 0.0001641 and 0.0002207 | second-order ([1]; time 60 sec, replicates 1-3): 0.0002611 and 0.0002284 and 0.000272 | second-order ([1]; time 91 sec, replicates 1-3): 0.0003157 and 0.0002781 and 0.0003304 | second-order ([1]; time 121 sec, replicates 1-3): 0.0003702 and 0.0003322 and 0.0003836 | second-order ([1]; time 151 sec, replicates 1-3): 0.0004294 and 0.0003825 and 0.0004404 | second-order ([1]; time 182 sec, replicates 1-3): 0.0004821 and 0.0004386 and 0.0004918 | second-order ([1]; time 212 sec, replicates 1-3): 0.0005317 and 0.0004932 and 0.0005467 | second-order ([1]; time 242 sec, replicates 1-3): 0.0005943 and 0.0005514 and 0.0005999 | second-order ([1]; time 273 sec, replicates 1-3): 0.0006417 and 0.0006068 and 0.0006568 | second-order ([1]; time 303 sec, replicates 1-3): 0.0006954 and 0.000662 and 0.0007064 | second-order ([1]; time 333 sec, replicates 1-3): 0.0007529 and 0.0007182 and 0.0007667 | second-order ([1]; time 364 sec, replicates 1-3): 0.0007999 and 0.0007714 and 0.0008167 | second-order ([1]; time 394 sec, replicates 1-3): 0.0008594 and 0.0008269 and 0.0008777 | second-order ([1]; time 424 sec, replicates 1-3): 0.000908 and 0.0008806 and 0.000931 | second-order ([1]; time 454 sec, replicates 1-3): 0.000965 and 0.0009423 and 0.0009806 | second-order ([1]; time 485 sec, replicates 1-3): 0.001015 and 0.0009923 and 0.001037 | second-order ([1]; time 515 sec, replicates 1-3): 0.001071 and 0.001049 and 0.001093 | second-order ([1]; time 545 sec, replicates 1-3): 0.001123 and 0.001109 and 0.001148 | second-order [2, 3]: 0.0007509 and 0.0006764 and 0.0006669 | second-order [2, 4]: 0.000786 and 0.0007119 and 0.0007036 | second-order [2, 5]: 0.0008202 and 0.000746 and 0.0007357 | second-order [2, 6]: 0.0008541 and 0.0007785 and 0.0007706 | second-order [2, 7]: 0.0008877 and 0.0008119 and 0.0008054 | second-order ([2]; Time 3794 sec, [B]0 = 250, Replicates 1-3): 0.0009231 and 0.0008424 and 0.0008418 | second-order ([2]; Time 3974 sec, [B]0 = 250, Replicates 1-3): 0.0009567 and 0.0008773 and 0.0008752 | second-order ([2]; Time 4155 sec, [B]0 = 250, Replicates 1-3): 0.00099 and 0.0009118 and 0.0009131 | second-order ([2]; Time 4336 sec, [B]0 = 250, Replicates 1-3): 0.001024 and 0.0009453 and 0.0009474 | second-order ([2]; Time 4516 sec, [B]0 = 250, Replicates 1-3): 0.00106 and 0.0009785 and 0.000984 | second-order ([2]; Time 4697 sec, [B]0 = 250, Replicates 1-3): 0.001096 and 0.001013 and 0.001019 | second-order ([2]; Time 4878 sec, [B]0 = 250, Replicates 1-3): 0.001128 and 0.001047 and 0.001054 | second-order ([2]; Time 5058 sec, [B]0 = 250, Replicates 1-3): 0.001163 and 0.00108 and 0.001089 | second-order ([2]; Time 5239 sec, [B]0 = 250, Replicates 1-3): 0.001202 and 0.001118 and 0.001125 | second-order ([2]; Time 5419 sec, [B]0 = 250, Replicates 1-3): 0.001235 and 0.001153 and 0.001158 | second-order ([2]; Time 5600 sec, [B]0 = 250, Replicates 1-3): 0.001269 and 0.001184 and 0.001195 | second-order ([2]; Time 5781 sec, [B]0 = 250, Replicates 1-3): 0.001306 and 0.001219 and 0.001231 | second-order ([2]; Time 5961 sec, [B]0 = 250, Replicates 1-3): 0.001339 and 0.001252 and 0.001269
